According to patent publication EP0428132A1, “Pradimicin derivatives” (Bristol-Myers Squibb Company, priority 1989, dated 1991):
≈ marks a conversion by molar mass, not a printed value.

Experiments:
Candida albicans A25578 = experiment: In vitro antifungal activity, serial agar dilution method (Table 1a); assay type: cell-based; conditions: A25578, YM agar (pH 7.0, Difco), 30°C for 2 days (yeast) or 4 days (filamentous fungi), read-out: MICs, Candida albicans A25578
Experimental: (§1) The inoculum size was adjusted to 10⁶ cells/ml, and a volume of approximately 0.003 ml of fungal suspension was applied to the surface of the antibiotic containing agar plates with a multiinoculator. After incubation, the lowest concentration of antibiotic causing virtually complete inhibition of fungal growth was determined as the minimum inhibitory concentration (MIC).

Candida albicans A9540 [1] = experiment: as above; assay type: cell-based; conditions: A9540, YM agar (pH 7.0, Difco), 30°C for 2 days (yeast) or 4 days (filamentous fungi), read-out: MICs, Candida albicans A9540
Experimental: as §1

[2] = system: Candida paratropicalis A25825; experiment: as above; assay type: cell-based; conditions: YM agar (pH 7.0, Difco); 30°C for 2 days (yeast) or 4 days (filamentous fungi); read-out: MICs, Candida paratropicalis A25825
Experimental: as §1

[3] = system: Candida pseudotropicalis A25802; experiment: as above; assay type: cell-based; conditions: Kluyveromyces marxianus, YM agar (pH 7.0, Difco), 30°C for 2 days (yeast) or 4 days (filamentous fungi), read-out: MICs, Candida pseudotropicalis A25802
Experimental: as §1

[4] = system: Candida tropicalis A25812; experiment: as above; assay type: cell-based; conditions: A25812, YM agar (pH 7.0, Difco), 30°C for 2 days (yeast) or 4 days (filamentous fungi), read-out: MICs, Candida tropicalis A25812
Experimental: as §1

[5] = system: Cryptococcus neoformans A15053; experiment: as above; assay type: cell-based; conditions: A15053, YM agar (pH 7.0, Difco), 30°C for 2 days (yeast) or 4 days (filamentous fungi), read-out: MICs, Cryptococcus neoformans A15053
Experimental: as §1

[6] = system: Microsporum canis WW10218; experiment: as above; assay type: cell-based; conditions: WW10218, pH 7, read-out: MICs, Microsporum canis WW10218
Experimental: as §1

[7] = system: Microsporum gypseum WW1107; experiment: as above; assay type: cell-based; conditions: Nannizzia gypsea, YM agar (pH 7.0, Difco), 30°C for 2 days (yeast) or 4 days (filamentous fungi), read-out: MICs, Microsporum gypseum WW1107
Experimental: as §1

[8] = system: Trichophyton mentagrophytes A26771; experiment: as above; assay type: cell-based; conditions: A26771, YM agar (pH 7.0, Difco), 30°C for 2 days (yeast) or 4 days (filamentous fungi), read-out: MICs, Trichophyton mentagrophytes A26771
Experimental: as §1

[9] = Water solubility, protocol I (PBS, HPLC); assay type: physicochemical; conditions: Method I: PBS without CaCl₂ and MgCl₂.6H₂O
Experimental: The supernatant (2 µL) was analyzed by HPLC using the conditions specified for each compound in the Experimental Section. […] When not soluble, an additional amount of PBS (x µL) was added, sonicated, and centrifuged. When visibly soluble, the solution (2 µL) was injected to HPLC and the peak area was used for the known concentration of the sample.

[10] = system: Candida tropicalis A25809; experiment: In vitro antifungal activity, serial agar dilution method (Table 1a); assay type: cell-based; conditions: YM agar (pH 7.0, Difco), 30°C for 2 days (yeast) or 4 days (filamentous fungi), read-out: MICs, Candida tropicalis A25809
Experimental: as §1

[11] = system: Saccharomyces cerevisiae A25803; experiment: as above; assay type: cell-based; conditions: YM agar (pH 7.0, Difco), 30°C for 2 days (yeast) or 4 days (filamentous fungi), read-out: MICs, Saccharomyces cerevisiae A25803
Experimental: as §1

[12] = system: Trichophyton rubrum A26761; experiment: as above; assay type: cell-based; conditions: A26761, pH 7, read-out: MICs, Trichophyton rubrum A26761
Experimental: as §1

FA21436 = experiment: In vitro antifungal activity, serial agar dilution method (Table 1); assay type: cell-based, Asoergukkys flavus
Experimental: as §1, with “(MIC). Table 1. [table]” for “(MIC).”

[13] = system: Aspergillus fumigatus IAM2034; experiment: as above; assay type: cell-based; conditions: Sabouraud dextrose agar (pH 7.0), 28°C for 40 hours
Experimental: as §1, with “(MIC). Table 1. [table]” for “(MIC).”

[14] = system: Aspergillus fumigatus IAM2530; experiment: as above; assay type: cell-based; conditions: Sabouraud dextrose agar (pH 7.0), 28°C for 40 hours
Experimental: as §1, with “(MIC). Table 1. [table]” for “(MIC).”

[15] = system: Blastomyces dermatidis D40; experiment: as above; assay type: cell-based
Experimental: as §1, with “(MIC). Table 1. [table]” for “(MIC).”

Candida albicans A9540 [16] = experiment: as above; assay type: cell-based; conditions: Sabouraud dextrose agar (pH 7.0), 28°C for 40 hours
Experimental: as §1, with “(MIC). Table 1. [table]” for “(MIC).”

Candida albicans IAM4888 = experiment: as above; assay type: cell-based; conditions: Sabouraud dextrose agar (pH 7.0), 28°C for 40 hours
Experimental: as §1, with “(MIC). Table 1. [table]” for “(MIC).”

[17] = system: Cryptococcus neoformans D49; experiment: as above; assay type: cell-based
Experimental: as §1, with “(MIC). Table 1. [table]” for “(MIC).”

[18] = system: Cryptococcus neoformans IAM4514; experiment: as above; assay type: cell-based; conditions: Sabouraud dextrose agar (pH 7.0), 28°C for 40 hours
Experimental: as §1, with “(MIC). Table 1. [table]” for “(MIC).”

[19] = system: Fusarium moniliforme A2284; experiment: as above; assay type: cell-based; conditions: Sabouraud dextrose agar (pH 7.0), 28°C for 40 hours
Experimental: as §1, with “(MIC). Table 1. [table]” for “(MIC).”

Mucor spinosus IFO5317 = experiment: as above; assay type: cell-based; conditions: Sabouraud dextrose agar (pH 7.0), 28°C for 40 hours
Experimental: as §1, with “(MIC). Table 1. [table]” for “(MIC).”

[20] = system: Petriellidium boydii IFO8078; experiment: as above; assay type: cell-based; conditions: Sabouraud dextrose agar (pH 7.0), 28°C for 40 hours
Experimental: as §1, with “(MIC). Table 1. [table]” for “(MIC).”

[21] = system: Sprotricosis schenckii IFO8158; experiment: as above; assay type: cell-based
Experimental: as §1, with “(MIC). Table 1. [table]” for “(MIC).”

[22] = system: Trichophyton mentagrophytes #4329; experiment: as above; assay type: cell-based; conditions: Sabouraud dextrose agar (pH 7.0), 28°C for 40 hours
Experimental: as §1, with “(MIC). Table 1. [table]” for “(MIC).”

[23] = system: Trichophyton mentagrophytes D155; experiment: as above; assay type: cell-based; conditions: Sabouraud dextrose agar (pH 7.0), 28°C for 40 hours
Experimental: as §1, with “(MIC). Table 1. [table]” for “(MIC).”

[24] = Sabouraud dextrose agar (pH 7.0), 28°C for 40 hours

Row | Compound | MIC (Candida albicans A25578) | MIC (Candida albicans A9540 [1]) | MIC [2] | MIC [3] | MIC [4] | MIC [5] | MIC [6] | MIC [7] | MIC [8] | solubility [9] | MIC [10] | MIC [11] | MIC [12] | also measured
1 | C=CCN(C)[C@@H]1[C@H](O[C@@H]2OC[C@@H](O)[C@H](O)[C@H]2O)[C@@H](O)[C@H](O[C@H]2c3cc(C)c(C(=O)N[C@H](C)C(=O)O)c(O)c3-c3c(cc4c(c3O)C(=O)c3cc(OC)cc(O)c3C4=O)[C@@H]2O)O[C@@H]1C [Ex. 22, N-(Allyl) pradimicin A] | 3.2 µg/mL (≈ 3.63 µM) | > 50 µg/mL | > 50 µg/mL | 3.2 µg/mL (≈ 3.63 µM) | > 50 µg/mL | 0.4 µg/mL (≈ 0.454 µM) | 1.6 µg/mL (≈ 1.82 µM) | > 50 µg/mL | > 50 µg/mL | 5000 µg/mL (≈ 5680 µM) |  |  |  | 
2 | CCOC(=O)CN(C)[C@@H]1[C@H](O)[C@@H](O)[C@H](O[C@H]2c3cc(C)c(C(=O)N[C@H](C)C(=O)O)c(O)c3-c3c(cc4c(c3O)C(=O)c3cc(OC)cc(O)c3C4=O)[C@@H]2O)O[C@@H]1C [Ex. 6, N-(ethoxycarbonylmethyl) pradimicin B] | 3.2 µg/mL (≈ 4.03 µM) | 6.3 µg/mL (≈ 7.93 µM) | 6.3 µg/mL (≈ 7.93 µM) | 1.6 µg/mL (≈ 2.01 µM) | 3.2 µg/mL (≈ 4.03 µM) | 1.6 µg/mL (≈ 2.01 µM) | 1.6 µg/mL (≈ 2.01 µM) | 12.5 µg/mL (≈ 15.7 µM) | 6.3 µg/mL (≈ 7.93 µM) | > 4000 µg/mL | 1.6 µg/mL (≈ 2.01 µM) | 0.8 µg/mL (≈ 1.01 µM) | 6.3 µg/mL (≈ 7.93 µM) | 
3 | COC(=O)/C=C/CN(C)[C@@H]1[C@H](O[C@@H]2OC[C@@H](O)[C@H](O)[C@H]2O)[C@@H](O)[C@H](O[C@H]2c3cc(C)c(C(=O)N[C@H](C)C(=O)O)c(O)c3-c3c(cc4c(c3O)C(=O)c3cc(OC)cc(O)c3C4=O)[C@@H]2O)O[C@@H]1C [compound 12, N-(trans-3-methoxycarbonyl-2-propenyl) pradimicin A] |  |  |  |  |  |  |  |  |  |  |  |  |  | MIC (FA21436; 40 h, pH 7, read-out: MIC, Asoergukkys flavus FA21436): 25 µg/mL (≈ 26.6 µM); MIC ([13]; Aspergillus fumigatus, IAM2034): 12.5 µg/mL (≈ 13.3 µM); MIC ([14]; Aspergillus fumigatus, IAM2530): 12.5 µg/mL (≈ 13.3 µM); MIC ([15]; Blastomyces, D40, 40 h, pH 7, read-out: MIC, Blastomyces dermatidis D40): > 25 µg/mL; MIC (Candida albicans A9540 [16]; Candida albicans, A9540): > 25 µg/mL; MIC (Candida albicans IAM4888; Candida albicans, IAM4888): 25 µg/mL (≈ 26.6 µM); MIC ([17]; Cryptococcus neoformans, D49, 40 h, pH 7, read-out: MIC, Cryptococcus neoformans D49): 6.3 µg/mL (≈ 6.71 µM); MIC ([18]; Cryptococcus neoformans, IAM4514): 6.3 µg/mL (≈ 6.71 µM); MIC ([19]; Fusarium verticillioides, A2284): > 25 µg/mL; MIC (Mucor spinosus IFO5317; Mucor spinosus, IFO5317): > 25 µg/mL; MIC ([20]; Scedosporium boydii, IFO8078): > 25 µg/mL; MIC ([21]; 40 h, pH 7, read-out: MIC, Sprotricosis schenckii IFO8158): 12.5 µg/mL (≈ 13.3 µM); MIC ([22]; Trichophyton mentagrophytes): 25 µg/mL (≈ 26.6 µM); MIC ([23]; Trichophyton mentagrophytes, D155): 12.5 µg/mL (≈ 13.3 µM)
4 | N-(sodiosulfomethyl) pradimicin A [Ex. 8] |  |  |  |  |  |  |  |  |  |  |  |  |  | MIC, Asoergukkys flavus FA21436 (FA21436; [24]): 6.3 µg/mL; MIC, Aspergillus fumigatus IAM2034 [13]: 3.1 µg/mL; MIC, Aspergillus fumigatus IAM2530 [14]: 1.6 µg/mL; MIC, Blastomyces dermatidis D40 [15, 24]: 1.6 µg/mL; MIC, Candida albicans A9540 (Candida albicans A9540 [16]): 6.3 µg/mL; MIC, Candida albicans IAM4888 (Candida albicans IAM4888): 3.1 µg/mL; MIC, Cryptococcus neoformans D49 [17, 24]: 0.8 µg/mL; MIC, Cryptococcus neoformans IAM4514 [18]: 0.8 µg/mL; MIC, Fusarium moniliforme A2284 [19]: 3.1 µg/mL; MIC, Mucor spinosus IFO5317 (Mucor spinosus IFO5317): > 50.0 µg/mL; Partial Inhibition, Mucor spinosus IFO5317 (Mucor spinosus IFO5317; value in parentheses = Partial Inhibition): 6.3 µg/mL; MIC, Petriellidium boydii IFO8078 [20]: 6.3 µg/mL; MIC, Sprotricosis schenckii IFO8158 [21, 24]: 1.6 µg/mL; MIC, Trichophyton mentagrophytes #4329 [22]: 3.1 µg/mL; MIC, Trichophyton mentagrophytes D155 [23]: 6.3 µg/mL
5 | COc1cc(O)c2c(c1)C(=O)c1c(cc3c(c1O)-c1c(cc(C)c(C(=O)N[C@H](C)C(=O)O)c1O)[C@H](O[C@@H]1O[C@H](C)[C@H](N(C)C(N)=O)[C@H](O)[C@H]1O)[C@H]3O)C2=O [Ex. 17, N-carbamyl pradimicin B] | 3.2 µg/mL (≈ 4.26 µM) | 6.3 µg/mL (≈ 8.38 µM) | 6.3 µg/mL (≈ 8.38 µM) | 1.6 µg/mL (≈ 2.13 µM) | 6.3 µg/mL (≈ 8.38 µM) | 6.3 µg/mL (≈ 8.38 µM) | 25 µg/mL (≈ 33.3 µM) | 25 µg/mL (≈ 33.3 µM) | 25 µg/mL (≈ 33.3 µM) |  | 1.6 µg/mL (≈ 2.13 µM) | 1.6 µg/mL (≈ 2.13 µM) | 25 µg/mL (≈ 33.3 µM) | 
